Literature values, collected in publication PMC8398451, “Molecular Engineering of Curcumin, an Active Constituent of Curcuma longa L. (Turmeric) of the Family Zingiberaceae with Improved Antiproliferative Activity” (Plants, 2021).

Experiments:
Parameters in all cases: method as in earlier work
Details in all cases: cited from earlier work; for Mean % GI: 10 µM, retrieved from NCI data-ware
[1] = system: Leukemia cell line panel
[2] = system: Non-Small Cell Lung Cancer cell line panel
[3] = system: Colon Cancer cell line panel
[4] = system: CNS Cancer cell line panel
[5] = system: Melanoma cell line panel
[6] = system: Ovarian Cancer cell line panel
[7] = system: Renal Cancer cell line panel
[8] = system: Prostate Cancer cell line panel
[9] = system: Breast Cancer cell line panel
[10] = five-dose assay, curcumin NCI data

Structure (SMILES)	Mean % GI [1] [%]	GI50 [1, 10] [µM]	Mean % GI [2] [%]	GI50 [2, 10] [µM]	Mean % GI [3] [%]	GI50 [3, 10] [µM]	Mean % GI [4] [%]	GI50 [4, 10] [µM]	Mean % GI [5] [%]	GI50 [5, 10] [µM]	Mean % GI [6] [%]	GI50 [6, 10] [µM]	Mean % GI [7] [%]	GI50 [7, 10] [µM]	Mean % GI [8] [%]	GI50 [8, 10] [µM]	Mean % GI [9] [%]	GI50 [9, 10] [µM]
COc1cc(/C=C/C(=O)CC(=O)/C=C/c2ccc(O)c(OC)c2)ccc1O [Cur, Curcumin]	97.76	3.7	49.27	9.2	95.76	4.7	60.75	5.8	54.63	5.9	44.66	9.1	45.35	8.9	61.3	11.2	56.1	8.1
COc1cc2ncnc(Nc3ccc(F)c(Cl)c3)c2cc1OCCCN1CCOCC1 [Gefitinib]	79.68		63.97		52.19		46.13		44.99		60.93		77.89		59.6		52.88	
